Laboratory results as given in patent US20030130272A1, “Anthracene derivatives as anti-cancer agents” (priority 1999, published 2003).
Counter-ions that a name gives are not always drawn.

Columns and labels:
[1] = target: T1, topo I (Homo sapiens, UniProt P11387); experiment: Inhibition of topoisomerase I mediated relaxation of pBR322 DNA; assay type: biochemical
T1 sequence (P11387 1-765): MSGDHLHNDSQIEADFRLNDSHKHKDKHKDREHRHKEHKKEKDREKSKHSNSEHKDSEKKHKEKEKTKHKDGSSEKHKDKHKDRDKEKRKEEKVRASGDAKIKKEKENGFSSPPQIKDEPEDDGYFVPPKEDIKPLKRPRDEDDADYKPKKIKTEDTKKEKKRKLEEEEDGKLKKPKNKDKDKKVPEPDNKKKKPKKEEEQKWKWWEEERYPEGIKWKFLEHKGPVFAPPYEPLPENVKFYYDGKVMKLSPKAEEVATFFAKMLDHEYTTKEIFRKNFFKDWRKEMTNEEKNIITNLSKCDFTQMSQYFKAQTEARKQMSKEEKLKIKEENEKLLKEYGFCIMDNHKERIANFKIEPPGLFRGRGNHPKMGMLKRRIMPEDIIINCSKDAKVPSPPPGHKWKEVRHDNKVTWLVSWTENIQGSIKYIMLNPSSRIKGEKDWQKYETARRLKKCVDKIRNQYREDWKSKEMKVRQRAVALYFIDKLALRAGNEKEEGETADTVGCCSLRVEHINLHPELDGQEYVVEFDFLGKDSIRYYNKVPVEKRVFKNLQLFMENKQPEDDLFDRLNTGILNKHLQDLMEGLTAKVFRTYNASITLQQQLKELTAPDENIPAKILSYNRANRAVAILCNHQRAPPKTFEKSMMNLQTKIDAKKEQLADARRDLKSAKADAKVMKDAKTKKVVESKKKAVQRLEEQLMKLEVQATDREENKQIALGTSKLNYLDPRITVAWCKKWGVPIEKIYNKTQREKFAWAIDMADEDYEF

[2] = tested on: MAC 15A cells; experiment: In vitro activity against MAC 15A adenocarcinoma (MTT assay); assay type: cell-based; conditions: MAC15A colon adenocarcinoma, 96 hours continuous exposure
Method: MAC 15A cells were grown in RPMI 1640 medium supplemented with 10% foetal calf serum containing a 1% antibiotic mixture under standard tissue culture conditions and were maintained at 37° C. in a humidified atmosphere of 5% CO2 in air. Cells were harvested from a stock culture in exponential growth phase and plated in 96-well flat-bottomed plates to achieve a final density of 2×10^3 cells per well. After 2 hours incubation medium was replaced with either fresh medium containing 0.5% DMSO (control) or medium containing test compound dissolved in DMSO at a concentrations from 10 mM to 1 nM. Chemosensitivity was assessed using MTT assay by the method of Plumb et al Cancer Research 49 (1989) 4435-4440.
Following 96 hours continuous exposure to drug at 37° C. cells were incubated with fresh drug-free medium immediately prior to addition of MTT solution (5 mg/ml). Medium and MTT were removed after 4 hours and 150 μl of DMSO was added. For each plate the absorbance of the resulting solution was measured at the analytical wavelength 550 nm for formnazan product, using a Labsystem Mutiskan. IC50 values were obtained from growth curves of drug concentration against % survival and are expressed in μm.
In vitro Cytotoxicity of Spacer Limked Anthraquinone Peptide Conjugates on MAC15A Colon Adenocarcinoma

## O=C1c2ccccc2C(=O)c2c1cccc2N1CCC[C@H]1C(=O)O [Example 6, (2S)-1-(9,10-dioxoanthryl)prrolidine-2-carboxylic acid]
[1]; at 100 μM
  DNA-topoisomerase activity: inhibition of topo I relaxation: PARTIAL inhibition at 100 μM

## C[C@H](N)C(=O)OC1CCN(c2cccc3c2C(=O)c2ccccc2C3=O)CC1.O=C(O)C(F)(F)F [Example 11, 1-(9,10-dioxoanthryl)-4-piperidyl-(2S)-2-aminopropanoate trifluoroacetate salt]
[2]
  IC50: 14 µM
[1]; between 25-100 μM
  DNA-topoisomerase activity: inhibition of topo I relaxation: NO inhibition between 25-100 μM

## C[C@H](N)C(=O)OC[C@@H]1CCCN1c1cccc2c1C(=O)c1ccccc1C2=O [Example 13, [(2S)]-1-(9,10-dioxoanthryl)pyrrolidin-2-yl]methyl (2S)-2-aminopropanoate trifluoroacetate salt]
[2]
  IC50: 22 µM

## C[C@H](NC(=O)OC(C)(C)C)C(=O)N1CCN(c2cccc3c2C(=O)c2ccccc2C3=O)CC1 [Example 16, 1-(1-N-tertiarybutoxycarbonyl-L-alanylpiperazinyl)anthracene-9,10-dione]
[1]; between 25-100 μM
  DNA-topoisomerase activity: inhibition of topo I relaxation: NO inhibition between 25-100 μM

## C[C@H](N)C(=O)N1CCN(c2cccc3c2C(=O)c2cccc(N4CCN(C(=O)[C@H](C)N)CC4)c2C3=O)CC1 [Example 23, 1,5-bis(1-L-alanylpiperazinyl)anthracene-9,10-dione trifluoroacetate salt]
[2]
  IC50: 15 µM

## NCC(=O)NC1CCC(Nc2cccc3c2C(=O)c2ccccc2C3=O)CC1 (centres unmarked) [Example 30, 2-amino-N-{4-[(9,10-dioxoanthryl)amino]cyclohexyl}acetamide trifluoroacetate salt]
[2]
  IC50: 6 µM

## C[C@H](N)C(=O)NC1CCC(Nc2cccc3c2C(=O)c2ccccc2C3=O)CC1 (stereo partly drawn) [Example 32, (2S)-2-amino-N-{4-[(9,10-dioxoanthryl)amino]cyclohexyl}propanamide trifluoroacetate salt]
[2]
  IC50: 4.4 µM

## C[C@@H](N)C(=O)NC1CCC(Nc2cccc3c2C(=O)c2ccccc2C3=O)CC1 (stereo partly drawn) [Example 34, (2R)-2-amino-N-{4-[(9,10-dioxoanthryl)amino]cyclohexyl}propanamide trifluoroacetate salt]
[2]
  IC50: 3.9 µM

## CC(C)[C@H](N)C(=O)NC1CCC(Nc2cccc3c2C(=O)c2ccccc2C3=O)CC1 (stereo partly drawn) [Example 36, (2S)-2-amino-N-{4-[(9,10-dioxoanthryl)amino]cyclohexyl}-3-methylbutanamide trifluoroacetate salt]
[2]
  IC50: 4.5 µM

## CC(C)[C@@H](N)C(=O)NC1CCC(Nc2cccc3c2C(=O)c2ccccc2C3=O)CC1 (stereo partly drawn) [Example 38, (2R)-2-amino-N-{4-[(9,10-dioxoanthryl)amino]cyclohexyl}-3-methylbutanamide trifluoroacetate salt]
[2]
  IC50: 4.2 µM

## O=C1c2ccccc2C(=O)c2c(NC3CCC(NC(=O)[C@@H]4CCCN4)CC3)cccc21 (stereo partly drawn) [Example 40, ((2S)pyrrolidin-2-yl)-N-{4-[(9,10-dioxoanthryl)amino]cyclohexyl}-carboxamide trifluoroacetate salt]
[2]
  IC50: 4.2 µM

## N[C@@H](Cc1ccccc1Cl)C(=O)NC1CCC(Nc2cccc3c2C(=O)c2ccccc2C3=O)CC1 (stereo partly drawn) [Example 44, (2S)-2-amino-N-{4-[(9,10-dioxoanthryl)amino]cyclohexyl}-3-(2-chlorophenyl)propanamide trifluoroacetate salt]
[2]
  IC50: 3 µM

## N[C@H](Cc1ccccc1Cl)C(=O)NC1CCC(Nc2cccc3c2C(=O)c2ccccc2C3=O)CC1 (stereo partly drawn) [Example 46, (2R)-2-amino-N-{4-[(9,10-dioxoanthryl)amino]cyclohexyl}-3-(2-chloro-phenyl)propanamide trifluoroacetate salt]
[2]
  IC50: 4.1 µM

## NCC(=O)NCCCN1CCN(CCCNc2cccc3c2C(=O)c2ccccc2C3=O)CC1.O=C(O)C(F)(F)F.O=C(O)C(F)(F)F.O=C(O)C(F)(F)F [Example 49, 2-amino-N-[3-(4-{3-[(9,10-dioxoanthryl)amino]propyl}piperazinyl)-propyl]acetamide tri-trifluoroacetate salt]
[1]; at 25 μM
  DNA-topoisomerase activity: inhibition of topo I relaxation: PARTIAL inhibition
[1]; at 50 μM
  DNA-topoisomerase activity: inhibition of topo I relaxation: COMPLETE

## C[C@@H](N)C(=O)NCCCN1CCN(CCCNc2cccc3c2C(=O)c2ccccc2C3=O)CC1 [Example 53, (2R)-2-amino-N-[3-(4-{3-[(9,10-dioxoanthryl)amino]propyl}-piperazinyl)propyl]propanamide trifluoroacetate salt]
[2]
  IC50: 4.9 µM

## CC(C)[C@H](N)C(=O)NCCCN1CCN(CCCNc2cccc3c2C(=O)c2ccccc2C3=O)CC1.O=C(O)C(F)(F)F [Example 55, (2S)-2-amino-N-[3-(4-{3-[(9,10-dioxoanthryl)amino]propyl}-piperazinyl)propyl]-3-methylbutanamide trifluoroacetate salt]
[1]; at 25 μM
  DNA-topoisomerase activity: inhibition of topo I relaxation: PARTIAL inhibition
[1]; at 50 μM
  DNA-topoisomerase activity: inhibition of topo I relaxation: COMPLETE

## N[C@H](Cc1ccccc1)C(=O)NCCCN1CCN(CCCNc2cccc3c2C(=O)c2ccccc2C3=O)CC1 [Example 61, (2R)-2-amino-N-[3-(4-{3-[(9,10-dioxoanthryl)amino]propyl}-piperazinyl)propyl]-3-phenylpropanamide trifluoroacetate salt]
[2]
  IC50: 3.8 µM

## N[C@@H](Cc1ccc(O)cc1)C(=O)NCCCN1CCN(CCCNc2cccc3c2C(=O)c2ccccc2C3=O)CC1.O=C(O)C(F)(F)F [Example 63, (2S)-2-amino-N-[3-(4-{3-[(9,10-dioxoanthryl)amino]propyl}-piperazinyl)propyl]-3-(4-hydroxyphenyl)propanamide trifluoroacetate salt]
[1]; at 25 μM
  DNA-topoisomerase activity: inhibition of topo I relaxation: PARTIAL inhibition
[1]; at 50 μM
  DNA-topoisomerase activity: inhibition of topo I relaxation: COMPLETE

## C[C@H](N)C(=O)NC1CCCCC1Nc1cccc2c1C(=O)c1ccccc1C2=O.O=C(O)C(F)(F)F (stereo partly drawn) [Example 66, (2S)-2-amino-N-{2-[(9,10-dioxoanthryl)amino]cyclohexyl}propanamide trifluoroacetate salt]
[2]
  IC50: 6.7 µM
[1]; at 10 μM
  DNA-topoisomerase activity: inhibition of topo I relaxation: COMPLETE inhibition at 10 μM; concentrations
[1]; concentrations above 10 μM
  DNA-topoisomerase activity: inhibition of topo I relaxation: above this value antagonised inhibitory activity

## NCCC(=O)NC1CCCCC1Nc1cccc2c1C(=O)c1ccccc1C2=O (centres unmarked) [Example 68, 3-amino-N-{2-[(9,10-dioxoanthryl)amino]cyclohexyl}propanamide trifluoroacetate salt]
[2]
  IC50: 6.2 µM

## NCC(=O)Nc1ccc(Nc2cccc3c2C(=O)c2ccccc2C3=O)cc1 [Example 70, 2-amino-N-{4-[(9,10-dioxoanthryl)amino]phenyl}acetamide trifluoroacetate salt]
[2]
  IC50: 2.2 µM

## NCCCC[C@H](N)C(=O)N1CCN(c2cccc3c2C(=O)c2ccccc2C3=O)CC1 [Example 79, 1-[4-((2S)-2-6-diaminohexanoyl)piperazinyl]anthracene-9,10-dione bis trifluoroacetate salt]
[2]
  IC50: 28 µM

## N[C@@H](Cc1ccc(Cl)cc1)C(=O)NC1CCC(Nc2cccc3c2C(=O)c2ccccc2C3=O)CC1 (stereo partly drawn) [Example 94, (2S)-2-amino-N-{4-[(9,10-dioxoanthryl)amino]cyclohexyl}-3-(4-chlorophenyl)propanamide trifluoroacetate salt]
[2]
  IC50: 1 µM

## ((2S)pyrrolidine-2-yl)-N-[3-(4-{3-[(9,10-dioxoanthryl)amino]propyl}-piperazinyl)propyl]carboxamide trifluoroacetate salt [Example 57]
[2]
  IC50: 4.6 µM
[1]; at 25 μM
  DNA-topoisomerase activity: inhibition of topo I relaxation: PARTIAL inhibition
[1]; at 50 μM
  DNA-topoisomerase activity: inhibition of topo I relaxation: COMPLETE
